Data from patent US6737383B1, “Herbicidal oxadiazolidines” (priority 1999, dated 2004).

What was measured:
bermuda-grass = experiment: Test D bermudagrass; type: in vivo, Cynodon dactylon; conditions: Preemergence, 0 to 100 scale
Outline: (§1)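 Scoring used a 0–100 visual injury scale, with 0 meaning no effect and 100 complete control, assessed 14–21 days after application alongside untreated pots. Preemergence treatments went onto sandy loam surfaces of separately potted seeds within a day of sowing.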

Alexandergrass = experiment: Test D Alexandergrass; type: in vivo, Brachiaria plantaginea; conditions: Preemergence, 0 to 100 scale
Outline: as §1

blackgrass = experiment: Test E blackgrass; type: in vivo, Alopecurus myosuroides; conditions: Preemergence
winter wheat [1] = experiment: Test E winter wheat; type: in vivo, Triticum aestivum; conditions: Postemergence
Outline: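 Visual evaluation versus untreated controls after about 21 to 28 days in the greenhouse. Compound was in a surfactant-containing non-phytotoxic solvent; postemergence plants were treated at the 1- to 4-leaf stage, grown in a 60:40 sandy loam and potting mix blend.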

velvetleaf = experiment: Test B pre/postemergence velvetleaf; type: in vivo, Abutilon theophrasti
Outline: (§2)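 Herbicidal effect was estimated by eye on a ten-point control scale after plants spent twelve to sixteen days in a greenhouse following soil or foliar treatment. Foliar sprays targeted plants at one to four leaves; all doses were formulated in a non-phytotoxic solvent with surfactant.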

wild oat [2] = experiment: Test E wild oat; type: in vivo, Avena fatua; conditions: Preemergence
bedstraw = experiment: Test B pre/postemergence bedstraw; type: in vivo, Galium aparine
Outline: as §2

winter barley = experiment: Test E winter barley; type: in vivo, Hordeum vulgare; conditions: Preemergence
green foxtail = experiment: Test E green foxtail; type: in vivo, Setaria viridis; conditions: Preemergence
Italian ryegrass = experiment: Test E Italian ryegrass; type: in vivo, Lolium multiflorum; conditions: Preemergence
wild oat [3] = experiment: Test B pre/postemergence wild oat; type: in vivo, Avena fatua
Outline: as §2

winter wheat [4] = experiment: Test E winter wheat; type: in vivo, Triticum aestivum; conditions: Preemergence
morningglory = experiment: Test B pre/postemergence morningglory; type: in vivo, Ipomoea hederacea
Outline: as §2

[5] = Rate 16 g/ha, 0 no injury, 100 complete control
[6] = Rate 32 g/ha, 0 no injury, 100 complete control
[7] = Rate 64 g/ha, 0 no injury, 100 complete control
[8] = Rate 125 g/ha, 0 no injury, 100 complete control
[9] = Rate 1000 g/ha, 0 to 100 scale where 0 is no effect and 100 is complete control
[10] = Rate 250 g/ha, 0 to 100 scale (0 no effect, 100 complete control)
[11] = Postemergence, Rate 62 g/ha, scale 0 to 10, 0 is no effect, 10 is complete control
[12] = Postemergence, Rate 250 g/ha, scale 0 to 10, 0 no effect, 10 complete control
[13] = Preemergence, Rate 31 g/ha, visual rating, scale 0 to 10 (0 no effect, 10 complete control)
[14] = Preemergence, Rate 62 g/ha, scale 0 to 10, 0 is no effect, 10 is complete control
[15] = Preemergence, Rate 125 g/ha, scale 0 to 10 (0 no effect, 10 complete control)
[16] = Preemergence, Rate 250 g/ha, scale of 0 to 10 where 0 is no effect and 10 is complete control
[17] = Rate 125 g/ha, Postemergence, scale 0 to 10, 0 no effect, 10 complete control
[18] = Rate 500 g/ha, 0 to 100 scale where 0 is no effect and 100 is complete control
[19] = Rate 31 g/ha, Postemergence, scale 0 to 10
[20] = Rate 62 g/ha, 0 to 100 scale, 0 no effect, 100 complete control
[21] = Rate 125 g/ha, 0 to 100 scale (0 no effect, 100 complete control)
[22] = Postemergence, Rate 125 g/ha, scale of 0 to 10 where 0 is no effect and 10 is complete control
[23] = Preemergence, Rate 62 g/ha, scale 0 to 10 (0 no effect, 10 complete control)
[24] = Preemergence, Rate 125 g/ha, 0 is no effect, 10 is complete control
[25] = Preemergence, Rate 500 g/ha, scale 0 to 10 (0 no effect, 10 complete control)
[26] = Rate 62 g/ha, Postemergence, scale of 0 to 10 where 0 is no effect and 10 is complete control
[27] = Rate 250 g/ha, Postemergence, scale 0 to 10, 0 is no effect, 10 is complete control
[28] = Rate 500 g/ha, Postemergence, scale 0 to 10, 0 no effect, 10 complete control

COc1ccccc1-n1c(=O)on(C(=O)N(c2ccc(F)cc2)C(C)C)c1=O [Compound 30]
Plant response rating, Bermudagrass (bermuda-grass; [5]): 50 | Plant response rating, Bermudagrass (bermuda-grass; [6]): 65 | Plant response rating, Bermudagrass (bermuda-grass; [7]): 98 | Plant response rating, Bermudagrass (bermuda-grass; [8]): 98 | Plant response rating, Bermudagrass (bermuda-grass; Rate 250 g/ha): 98 | Plant response rating, Bermudagrass (bermuda-grass; Rate 500 g/ha): 100 | Plant response rating, Alexandergrass (Alexandergrass; [5]): 0 | Plant response rating, Alexandergrass (Alexandergrass; [6]): 0 | Plant response rating, Alexandergrass (Alexandergrass; [7]): 40 | Plant response rating, Alexandergrass (Alexandergrass; [8]): 50 | Plant response rating, Alexandergrass (Alexandergrass; Rate 250 g/ha): 80 | Plant response rating, Alexandergrass (Alexandergrass; Rate 500 g/ha): 90 | Plant response rating, Blackgrass (blackgrass; Rate 250 g/ha, 0 to 100 scale): 30 | Plant response rating, Blackgrass (blackgrass; [9]): 30 | Plant response rating, Wheat (winter) (winter wheat [1]; [10]): 0 | Plant response rating, Wheat (winter) (winter wheat [1]; Rate 1000 g/ha, 0 to 100 scale, 0 is no effect and 100 is complete control): 0 | Plant response rating, Wheat (winter) (winter wheat [1]; Rate 500 g/ha, 0 to 100 scale, 0 no effect, 100 complete control): 0 | Velvetleaf plant response rating (velvetleaf; [11]): 0 | Velvetleaf plant response rating (velvetleaf; [12]): 0 | Velvetleaf plant response rating (velvetleaf; [13]): 0 | Plant response rating, Velvetleaf (velvetleaf; [14]): 0 | Plant response rating, Velvetleaf (velvetleaf; [15]): 0 | Plant response rating, Velvetleaf (velvetleaf; [16]): 3 | Velvetleaf plant response rating (velvetleaf; [17]): 0 | Plant response rating, Wild oat (wild oat [2]; [18]): 10 | Plant response rating, Wild oat (wild oat [2]; [9]): 20 | Bedstraw plant response rating (bedstraw; [11]): 0 | Bedstraw plant response rating (bedstraw; [12]): 0 | Bedstraw plant response rating (bedstraw; [13]): 0 | Plant response rating, Bedstraw (bedstraw; [14]): 0 | Plant response rating, Bedstraw (bedstraw; [15]): 0 | Plant response rating, Bedstraw (bedstraw; [16]): 0 | Bedstraw plant response rating (bedstraw; [19]): 0 | Bedstraw plant response rating (bedstraw; [17]): 0 | Plant response rating, Barley (winter) (winter barley; Rate 250 g/ha, 0 to 100 scale): 10 | Plant response rating, Barley (winter) (winter barley; [18]): 10 | Plant response rating, Barley (winter) (winter barley; [9]): 10 | Plant response rating, Green foxtail (green foxtail; Rate 250 g/ha, 0 to 100 scale): 30 | Plant response rating, Green foxtail (green foxtail; [18]): 60 | Plant response rating, Green foxtail (green foxtail; [9]): 60 | Plant response rating, I. Ryegrass (Italian ryegrass; Rate 250 g/ha, 0 to 100 scale): 20 | Plant response rating, I. Ryegrass (Italian ryegrass; [18]): 40 | Plant response rating, I. Ryegrass (Italian ryegrass; [9]): 50 | Wild oats plant response rating (wild oat [3]; [11]): 0 | Wild oats plant response rating (wild oat [3]; [12]): 0 | Wild oats plant response rating (wild oat [3]; [13]): 0 | Plant response rating, Wild oats (wild oat [3]; [15]): 2 | Plant response rating, Wild oats (wild oat [3]; [16]): 8 | Wild oats plant response rating (wild oat [3]; [17]): 0 | Plant response rating, Wheat (winter) (winter wheat [4]; Rate 250 g/ha, 0 to 100 scale): 0 | Plant response rating, Wheat (winter) (winter wheat [4]; [18]): 0 | Plant response rating, Wheat (winter) (winter wheat [4]; [9]): 0 | Morningglory plant response rating (morningglory; [11]): 1 | Morningglory plant response rating (morningglory; [12]): 6 | Morningglory plant response rating (morningglory; [13]): 0 | Plant response rating, Morningglory (morningglory; [14]): 0 | Plant response rating, Morningglory (morningglory; [15]): 0 | Plant response rating, Morningglory (morningglory; [16]): 0 | Morningglory plant response rating (morningglory; [19]): 1 | Morningglory plant response rating (morningglory; [17]): 1

CC(C)N(C(=O)n1oc(=O)n(C2CCCCC2)c1=O)c1ccccc1 [Compound 112]
Plant response rating, Bermudagrass (bermuda-grass; [5]): 60 | Plant response rating, Bermudagrass (bermuda-grass; [6]): 75 | Plant response rating, Bermudagrass (bermuda-grass; [7]): 85 | Plant response rating, Bermudagrass (bermuda-grass; Rate 250 g/ha): 98 | Plant response rating, Bermudagrass (bermuda-grass; Rate 500 g/ha): 100 | Plant response rating, Alexandergrass (Alexandergrass; [5]): 0 | Plant response rating, Alexandergrass (Alexandergrass; [6]): 0 | Plant response rating, Alexandergrass (Alexandergrass; [7]): 0 | Plant response rating, Alexandergrass (Alexandergrass; Rate 250 g/ha): 80 | Plant response rating, Alexandergrass (Alexandergrass; Rate 500 g/ha): 100 | Plant response rating, Blackgrass (blackgrass; [20]): 10 | Plant response rating, Blackgrass (blackgrass; [21]): 20 | Plant response rating, Blackgrass (blackgrass; Rate 250 g/ha, 0 to 100 scale): 50 | Plant response rating, Wheat (winter) (winter wheat [1]; Rate 62 g/ha, 0 to 100 scale): 0 | Plant response rating, Wheat (winter) (winter wheat [1]; Rate 125 g/ha, 0 to 100 scale): 0 | Plant response rating, Wheat (winter) (winter wheat [1]; [10]): 10 | Velvetleaf plant response rating (velvetleaf; [22]): 0 | Velvetleaf plant response rating (velvetleaf; [23]): 0 | Velvetleaf plant response rating (0 to 10 scale) (velvetleaf; [24]): 2 | Plant response rating, Velvetleaf (velvetleaf; [16]): 4 | Velvetleaf plant response rating (velvetleaf; [25]): 5 | Velvetleaf plant response rating (velvetleaf; [26]): 0 | Plant response rating, Velvetleaf (velvetleaf; [27]): 1 | Velvetleaf plant response rating (velvetleaf; [28]): 1 | Plant response rating, Wild oat (wild oat [2]; [20]): 0 | Plant response rating, Wild oat (wild oat [2]; [21]): 0 | Bedstraw plant response rating (bedstraw; [11]): 0 | Bedstraw plant response rating (bedstraw; [12]): 7 | Bedstraw plant response rating (bedstraw; [23]): 0 | Plant response rating, Bedstraw (bedstraw; [15]): 0 | Plant response rating, Bedstraw (bedstraw; [16]): 0 | Bedstraw plant response rating (bedstraw; [25]): 0 | Bedstraw plant response rating (bedstraw; [17]): 0 | Plant response rating, Barley (winter) (winter barley; [20]): 0 | Plant response rating, Barley (winter) (winter barley; [21]): 10 | Plant response rating, Barley (winter) (winter barley; Rate 250 g/ha, 0 to 100 scale): 10 | Plant response rating, Green foxtail (green foxtail; [20]): 10 | Plant response rating, Green foxtail (green foxtail; [21]): 20 | Plant response rating, Green foxtail (green foxtail; Rate 250 g/ha, 0 to 100 scale): 50 | Plant response rating, I. Ryegrass (Italian ryegrass; [20]): 0 | Plant response rating, I. Ryegrass (Italian ryegrass; [21]): 0 | Plant response rating, I. Ryegrass (Italian ryegrass; Rate 250 g/ha, 0 to 100 scale): 20 | Wild oats plant response rating (wild oat [3]; [22]): 0 | Wild oats plant response rating (wild oat [3]; [23]): 0 | Wild oats plant response rating (0 to 10 scale) (wild oat [3]; [24]): 0 | Plant response rating, Wild oats (wild oat [3]; [16]): 2 | Wild oats plant response rating (wild oat [3]; [25]): 6 | Wild oats plant response rating (wild oat [3]; [26]): 0 | Plant response rating, Wild oats (wild oat [3]; [27]): 0 | Wild oats plant response rating (wild oat [3]; [28]): 1 | Plant response rating, Wheat (winter) (winter wheat [4]; [20]): 0 | Plant response rating, Wheat (winter) (winter wheat [4]; [21]): 0 | Plant response rating, Wheat (winter) (winter wheat [4]; Rate 250 g/ha, 0 to 100 scale): 0 | Morningglory plant response rating (morningglory; [22]): 10 | Morningglory plant response rating (morningglory; [12]): 10 | Morningglory plant response rating (morningglory; [23]): 0 | Plant response rating, Morningglory (morningglory; [15]): 2 | Plant response rating, Morningglory (morningglory; [16]): 2 | Morningglory plant response rating (morningglory; [25]): 2 | Morningglory plant response rating (morningglory; [26]): 8 | Morningglory plant response rating (morningglory; [28]): 10
